# From patent publication US10738030B2, “Modulators of cystic fibrosis transmembrane conductance regulator” (Vertex Pharmaceuticals Incorporated, priority 2016, dated 2020)
# Target: T1, F508del (Homo sapiens, UniProt P13569, DEL508-508)
# T1 construct: expressed in transfected cells
# Assay: Membrane potential optical assay (FRET voltage-sensor dyes), identification of correction compounds
# Assay type: cell-based
# Details: NIH3T3 cells stably expressing F508del, procedures described above; for Emax: maximum efficacy, read-out: Max Efficacy; for EC50: modulation of CFTR activity
# Procedure, shortened: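 NIH3T3 mouse fibroblasts stably expressing F508del incubated 16 hrs at 37° C. in serum-free medium with or without compound. After dye loading (CC2-DMPE/DiSBAC2(3)), 10 μM forskolin plus 20 μM genistein added in Cl⁻-free medium; depolarization from Cl⁻ efflux read by FRET on VIPR II.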
# T1 sequence (P13569 with tags, fused parts or gaps DEL508-508): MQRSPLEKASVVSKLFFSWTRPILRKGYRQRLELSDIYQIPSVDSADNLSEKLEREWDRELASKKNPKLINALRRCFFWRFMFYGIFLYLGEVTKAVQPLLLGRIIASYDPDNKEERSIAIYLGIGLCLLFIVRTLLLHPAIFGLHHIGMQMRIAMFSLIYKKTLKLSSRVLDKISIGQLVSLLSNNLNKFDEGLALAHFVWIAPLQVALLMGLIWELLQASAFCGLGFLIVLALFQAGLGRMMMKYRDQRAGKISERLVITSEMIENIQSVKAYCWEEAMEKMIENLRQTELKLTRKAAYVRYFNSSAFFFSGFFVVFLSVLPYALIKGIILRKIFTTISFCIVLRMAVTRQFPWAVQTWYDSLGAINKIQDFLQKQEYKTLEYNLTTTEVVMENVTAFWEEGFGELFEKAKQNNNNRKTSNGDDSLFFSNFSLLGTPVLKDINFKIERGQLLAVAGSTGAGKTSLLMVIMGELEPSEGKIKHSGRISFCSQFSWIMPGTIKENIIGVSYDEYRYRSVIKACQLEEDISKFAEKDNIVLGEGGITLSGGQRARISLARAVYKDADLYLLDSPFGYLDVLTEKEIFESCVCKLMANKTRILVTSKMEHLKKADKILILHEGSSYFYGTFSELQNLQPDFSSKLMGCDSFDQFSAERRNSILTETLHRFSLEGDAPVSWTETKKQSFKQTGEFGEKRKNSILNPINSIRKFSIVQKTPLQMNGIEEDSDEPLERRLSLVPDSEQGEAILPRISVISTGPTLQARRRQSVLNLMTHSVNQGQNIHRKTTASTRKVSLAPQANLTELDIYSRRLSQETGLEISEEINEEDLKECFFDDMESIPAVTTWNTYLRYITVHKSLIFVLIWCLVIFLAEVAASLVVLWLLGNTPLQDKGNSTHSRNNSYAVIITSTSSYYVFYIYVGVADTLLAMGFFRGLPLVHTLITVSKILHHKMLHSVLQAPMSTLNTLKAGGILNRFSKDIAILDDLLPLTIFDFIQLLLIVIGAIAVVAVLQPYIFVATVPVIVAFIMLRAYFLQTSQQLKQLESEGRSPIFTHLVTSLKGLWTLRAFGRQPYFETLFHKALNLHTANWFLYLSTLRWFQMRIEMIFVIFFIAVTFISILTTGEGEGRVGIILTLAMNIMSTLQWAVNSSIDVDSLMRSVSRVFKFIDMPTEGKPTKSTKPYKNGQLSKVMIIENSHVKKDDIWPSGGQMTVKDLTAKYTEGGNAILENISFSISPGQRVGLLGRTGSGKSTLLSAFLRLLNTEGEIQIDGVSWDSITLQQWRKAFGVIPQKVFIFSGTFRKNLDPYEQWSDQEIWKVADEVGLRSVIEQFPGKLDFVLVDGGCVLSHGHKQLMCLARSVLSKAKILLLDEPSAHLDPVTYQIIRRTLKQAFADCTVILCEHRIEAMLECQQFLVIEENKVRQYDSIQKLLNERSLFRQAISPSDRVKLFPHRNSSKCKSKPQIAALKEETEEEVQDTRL
Structure (SMILES),Emax [%],EC50 [µM]
"CC(C)COc1cc(F)cc(-c2ccc(C(=O)NS(=O)(=O)c3cccc(N)n3)c(OC(C)C(F)(F)F)n2)c1 (stereo not shown) [Compound 73, N-[(6-amino-2-pyridyl)sulfonyl]-6-(3-fluoro-5-isobutoxy-phenyl)-2-(2,2,2-trifluoro-1-methyl-ethoxy)pyridine-3-carboxamide]",30 to 80,< 3
"COc1nc(-c2cc(F)cc(OCC(C)C)c2)ccc1C(=O)NS(=O)(=O)c1cccc(N)n1 [Compound 10, N-[(6-amino-2-pyridyl)sulfonyl]-6-(3-fluoro-5-isobutoxy-phenyl)-2-methoxy-pyridine-3-carboxamide]",30 to 80,< 3
"CCN(CC)c1nc(-c2ccc(OC(C)C)nc2)ccc1C(=O)NS(=O)(=O)c1cccc(N)n1 [Compound 8, N-((6-Aminopyridin-2-yl)sulfonyl)-6-(diethylamino)-6′-isopropoxy-[2,3′-bipyridine]-5-carboxamide]",30 to 80,3 to 10
"CC(C)(C)COc1nc(C(C)(C)C)ccc1C(=O)NS(=O)(=O)c1cccc(N)n1 [Compound 15, N-[(6-amino-2-pyridyl)sulfonyl]-6-tert-butyl-2-(2,2-dimethylpropoxy)pyridine-3-carboxamide]",30 to 80,< 3
"C/C=C/COc1nc(-c2cc(F)cc(OCC(C)C)c2)ccc1C(=O)NS(=O)(=O)c1cccc(N)n1 [Compound 28, N-[(6-amino-2-pyridyl)sulfonyl]-2-[(E)-but-2-enoxy]-6-(3-fluoro-5-isobutoxy-phenyl)pyridine-3-carboxamide]",30 to 80,< 3
"CC(C)CCOc1nc(-c2cc(F)cc(OCC(C)C)c2)ccc1C(=O)NS(=O)(=O)c1cccc(N)n1 [Compound 2, N-[(6-amino-2-pyridyl)sulfonyl]-6-(3-fluoro-5-isobutoxy-phenyl)-2-isopentyloxy-pyridine-3-carboxamide]",> 80,< 3
"CC(C)COc1cc(F)cc(-c2ccc(C(=O)NS(=O)(=O)c3ccccc3)c(N(C)CCCC(=O)O)n2)c1 [Compound 86, 4-[[3-(benzenesulfonylcarbamoyl)-6-(3-fluoro-5-isobutoxy-phenyl)-2-pyridyl]-methyl-amino]butanoic Acid]",≤ 30,> 10
"CC(C)COc1cc(F)cc(-c2ccc(C(=O)NS(=O)(=O)c3cccc(N)n3)c(OC(C)CC(F)(F)F)n2)c1 (stereo not shown) [Compound 9, N-[(6-amino-2-pyridyl)sulfonyl]-6-(3-fluoro-5-isobutoxy-phenyl)-2-(3,3,3-trifluoro-1-methyl-propoxy)pyridine-3-carboxamide]",30 to 80,< 3
"CC(C)COc1cc(F)cc(-c2ccc(C(=O)NS(=O)(=O)c3cccc(N)n3)c(N(C)C(C)C)n2)c1 [Compound 31, N-[(6-amino-2-pyridyl)sulfonyl]-6-(3-fluoro-5-isobutoxy-phenyl)-2-[isopropyl(methyl)amino]pyridine-3-carboxamide]",> 80,< 3
"CCCN(C)c1nc(-c2cc(F)cc(OCC(C)C)c2)ccc1C(=O)NS(=O)(=O)c1cccc(N)n1 [Compound 64, N-[(6-amino-2-pyridyl)sulfonyl]-6-(3-fluoro-5-isobutoxy-phenyl)-2-[methyl(propyl)amino]pyridine-3-carboxamide]",> 80,< 3
"CCC(CC)N(C)c1nc(-c2cc(F)cc(OCC(C)C)c2)ccc1C(=O)NS(=O)(=O)c1cccc(N)n1 [Compound 69, N-[(6-amino-2-pyridyl)sulfonyl]-2-[1-ethylpropyl(methyl)amino]-6-(3-fluoro-5-isobutoxy-phenyl)pyridine-3-carboxamide]",> 80,< 3
"CC(C)COc1cc(F)cc(-c2ccc(C(=O)NS(=O)(=O)c3cccc(N)n3)c(OC(C)CC(C)(C)C)n2)c1 (stereo not shown) [Compound 36, N-[(6-amino-2-pyridyl)sulfonyl]-6-(3-fluoro-5-isobutoxy-phenyl)-2-(1,3,3-trimethylbutoxy)pyridine-3-carboxamide]",30 to 80,< 3
"CC(C)COc1cc(F)cc(-c2ccc(C(=O)NS(=O)(=O)c3cccc(N)n3)c(OC(C(C)C)C(C)C)n2)c1 [Compound 26, N-[(6-amino-2-pyridyl)sulfonyl]-6-(3-fluoro-5-isobutoxy-phenyl)-2-(1-isopropyl-2-methyl-propoxy)pyridine-3-carboxamide]",30 to 80,< 3
"CCCCCOc1nc(-c2cc(F)cc(OCC(C)C)c2)ccc1C(=O)NS(=O)(=O)c1cccc(N)n1 [Compound 11, N-[(6-amino-2-pyridyl)sulfonyl]-6-(3-fluoro-5-isobutoxy-phenyl)-2-pentoxy-pyridine-3-carboxamide]",> 80,< 3
"COC(C)(C)CCOc1nc(-c2cc(F)cc(OCC(C)C)c2)ccc1C(=O)NS(=O)(=O)c1cccc(N)n1 [Compound 22, N-[(6-amino-2-pyridyl)sulfonyl]-6-(3-fluoro-5-isobutoxy-phenyl)-2-(3-methoxy-3-methyl-butoxy)pyridine-3-carboxamide]",30 to 80,< 3
"CCC(COC)Oc1nc(-c2cc(F)cc(OCC(C)C)c2)ccc1C(=O)NS(=O)(=O)c1cccc(N)n1 (stereo not shown) [Compound 18, N-[(6-amino-2-pyridyl)sulfonyl]-6-(3-fluoro-5-isobutoxy-phenyl)-2-[1-(methoxymethyl)propoxy]pyridine-3-carboxamide]",30 to 80,< 3
"COC[C@@H](C)Oc1nc(-c2cc(F)cc(OCC(C)C)c2)ccc1C(=O)NS(=O)(=O)c1cccc(N)n1 [Compound 65, N-[(6-amino-2-pyridyl)sulfonyl]-6-(3-fluoro-5-isobutoxy-phenyl)-2-[(1R)-2-methoxy-1-methyl-ethoxy]pyridine-3-carboxamide]",30 to 80,< 3
"CCOc1nc(-c2cc(F)cc(OCC(C)C)c2)ccc1C(=O)NS(=O)(=O)c1cccc(N)n1 [Compound 30, N-[(6-amino-2-pyridyl)sulfonyl]-2-ethoxy-6-(3-fluoro-5-isobutoxy-phenyl)pyridine-3-carboxamide]",30 to 80,< 3
"CC(C)COc1cc(F)cc(-c2ccc(C(=O)NS(=O)(=O)c3cccc(N)n3)c(OCCOC(C)C)n2)c1 [Compound 55, N-[(6-amino-2-pyridyl)sulfonyl]-6-(3-fluoro-5-isobutoxy-phenyl)-2-(2-isopropoxyethoxy)pyridine-3-carboxamide]",30 to 80,< 3
"CC(C)COc1cc(F)cc(-c2ccc(C(=O)NS(=O)(=O)c3cccc(N)n3)c(C(C)C(C)C)n2)c1 (stereo not shown) [Compound 76, N-[(6-amino-2-pyridyl)sulfonyl]-2-(1,2-dimethylpropyl)-6-(3-fluoro-5-isobutoxy-phenyl)pyridine-3-carboxamide]",30 to 80,< 3
